According to PMC10343887, “Structural Optimization of BIPPO Analogs as Potent Antimalarials” (Molecules, 2023):
Read-outs that look alike come from different tables or passages of the source.

Experiments:
P. falciparum = test: Antimalarial screening against asexual blood stage P. falciparum; assay type: cell-based, Plasmodium falciparum; details: for IC50: Plasmodium falciparum, read-out: P. fal pIC50 (converted); for fold decreased antimalarial potency compared to 3 / fold potency decrease compared with 30: P. falciparum; for fold decreased antimalarial potency compared to 3: relative to 3; for fold potency decrease compared with 30: relative to 30
Method: Previously, Howard et al. reported (sub)micromolar activity against P. falciparum for a series of BIPPO analogs with benzyl substituents. To further understand the structure–activity relationship (SAR) of this interesting scaffold, close analogs of 3 with substituents at R^1–R^4 positions were tested against P. falciparum and human MRC-5 cells as the control for non-specific toxicity (Table 1).
The assay for antimalarial activity was carried out as described in detail in Pereira et al..

[1] = Non-specific toxicity control on human MRC-5 cells; assay type: cell-based
[2] = Metabolic stability in mouse liver microsomes (S9 fraction); assay type: in vitro ADME
Method: Thus, compounds 23, 28–30, 47a and 47b with high potencies (pIC50 > 6) were evaluated for their in vitro metabolic stability in human and mouse liver microsomes (S9 fraction) with diclofenac as a reference compound. As summarized in Figure 2, substituents in the R^4 position affect metabolic stability. […] Their stability against mouse liver microsomes is lower, especially for their Phase I metabolism; only 38% and 26% of the parent compounds are left for 23 and 29 after one hour of incubation. […] For the adamantanyl analogs 30, 47a and 47b, metabolic stability differs drastically, with Phase I identified as the main metabolic pathway. Analog 47b was metabolized for >95% within 30 min with mouse liver microsomes, while 90% of 47a (tert-butyl analog) was left after one hour of incubation.
The assay for metabolic stability in human and mouse liver microsomal fractions (S9) was performed as described.

[3] = potency against asexual blood stage of P. falciparum, average values n ≥ 2, s.d. < 0.3
[4] = human MRC-5 cells, average values n ≥ 2, s.d. < 0.3, read-out: MRC-5 pIC50 (converted)

Compound | IC50 (P. falciparum; [3]) | IC50 [1, 4] | other results
CC(C)c1nn(C)c2c(=O)[nH]c(Cc3ccccc3)nc12 [37a, 5-Benzyl-3-isopropyl-1-methyl-1,6-dihydro-7H-pyrazolo[4,3-d]pyrimidin-7-one] | 10 µM | > 63.1 µM | 
CC(C)c1c2nc(Cc3ccccc3)[nH]c(=O)c2nn1C [37b, 5-Benzyl-3-isopropyl-2-methyl-2,6-dihydro-7H-pyrazolo[4,3-d]pyrimidin-7-one] | 5.01 µM | > 63.1 µM | 
CC(C)c1nn(C)c2c(=O)[nH]c(C34CC5CC(CC(C5)C3)C4)nc12 [38a, 5-(Adamantan-1-yl)-3-isopropyl-1-methyl-1,6-dihydro-7H-pyrazolo[4,3-d]pyrimidin-7-one] | > 63.1 µM | > 63.1 µM | fold potency decrease compared with 30 (P. falciparum): more than 400 fold
CC(C)c1c2nc(C34CC5CC(CC(C5)C3)C4)[nH]c(=O)c2nn1C [38b, 5-(Adamantan-1-yl)-3-isopropyl-2-methyl-2,6-dihydro-7H-pyrazolo[4,3-d]pyrimidin-7-one] | 2.51 µM | > 63.1 µM | fold potency decrease compared with 30 (P. falciparum): more than 15 fold
O=c1[nH]c(Cc2ccccc2)nc2c(C3CCCC3)n[nH]c12 [46b, 5-Benzyl-3-cyclopentyl-1,6-dihydro-7H-pyrazolo[4,3-d]pyrimidin-7-one] | 1.58 µM | > 63.1 µM | 
CC(C)(C)c1n[nH]c2c(=O)[nH]c(C34CC5CC(CC(C5)C3)C4)nc12 [47a, 5-(Adamantan-1-yl)-3-(tert-butyl)-1,6-dihydro-7H-pyrazolo[4,3-d]pyrimidin-7-one] |  | > 63.1 µM | metabolic stability in mouse liver microsomes (in words) ([2]; mouse liver microsomes): favorable metabolic stability; parent compound left ([2]; mouse liver microsomes, one hour of incubation, phase not given): 90%; fold potency decrease compared with 30 (P. falciparum): 4 fold
O=c1[nH]c(C23CC4CC(CC(C4)C2)C3)nc2c(C3CCCC3)n[nH]c12 [47b, 5-(Adamantan-1-yl)-3-cyclopentyl-1,6-dihydro-7H-pyrazolo[4,3-d]pyrimidin-7-one] | < 1 µM | > 63.1 µM | metabolic stability relative to diclofenac ([2]; mouse Phase I assay): metabolized faster than diclofenac; metabolized ([2]; mouse liver microsomes, within 30 min): > 95%; fold potency decrease compared with 30 (P. falciparum): 2.5 fold; P. fal pIC50 (P. falciparum; [3]): 6.2
CC(C)c1n[nH]c2c(=O)[nH]c(Cc3ccncc3)nc12 [compound 4, 3-Isopropyl-5-(pyridin-4-ylmethyl)-1,6-dihydro-7H-pyrazolo[4,3-d]pyrimidin-7-one] | 7.94 µM | > 63.1 µM | fold decreased antimalarial potency compared to 3 (P. falciparum): six
CC(C)c1n[nH]c2c(=O)[nH]c(-c3ccccc3)nc12 [compound 6, 3-Isopropyl-5-phenyl-1,6-dihydro-7H-pyrazolo[4,3-d]pyrimidin-7-one] | 31.6 µM | > 63.1 µM | fold decreased antimalarial potency compared to 3 (P. falciparum): 5- to 25 fold
CC(C)c1n[nH]c2c(=O)[nH]c(-c3ccc(N4CCN(C)CC4)cc3)nc12 [compound 7, 3-Isopropyl-5-(4-(4-methylpiperazin-1-yl)phenyl)-1,6-dihydro-7H-pyrazolo[4,3-d]pyrimidin-7-one] | 7.94 µM | > 39.8 µM | 
CC(C)c1n[nH]c2c(=O)[nH]c(-c3ccc(N4CCCCC4)cc3)nc12 [compound 8, 3-Isopropyl-5-(4-(piperidin-1-yl)phenyl)-1,6-dihydro-7H-pyrazolo[4,3-d]pyrimidin-7-one] | > 50.1 µM | > 63.1 µM | 
CC(C)c1n[nH]c2c(=O)[nH]c(-c3cscn3)nc12 [compound 9, 3-Isopropyl-5-(thiazol-4-yl)-1,6-dihydro-7H-pyrazolo[4,3-d]pyrimidin-7-one] | > 63.1 µM | > 63.1 µM | 
CC(C)c1n[nH]c2c(=O)[nH]c(CCc3ccccc3)nc12 [compound 12, 3-Isopropyl-5-phenethyl-1,6-dihydro-7H-pyrazolo[4,3-d]pyrimidin-7-one] | 6.31 µM | > 63.1 µM | fold decreased antimalarial potency compared to 3 (P. falciparum): 5- to 25 fold
CC(C)c1n[nH]c2c(=O)[nH]cnc12 [compound 18, 3-Isopropyl-1,6-dihydro-7H-pyrazolo[4,3-d]pyrimidin-7-one] | > 63.1 µM | > 63.1 µM | 
CCCCc1nc2c(C(C)C)n[nH]c2c(=O)[nH]1 [compound 21, 5-Butyl-3-isopropyl-1,6-dihydro-7H-pyrazolo[4,3-d]pyrimidin-7-one] | 1.26 µM | > 63.1 µM | 
CC(C)c1n[nH]c2c(=O)[nH]c(C3CCCC3)nc12 [compound 22, 5-Cyclopentyl-3-isopropyl-1,6-dihydro-7H-pyrazolo[4,3-d]pyrimidin-7-one] | 0.794 µM | > 63.1 µM | 
CC(C)c1n[nH]c2c(=O)[nH]c(C3CCOCC3)nc12 [compound 24, 3-Isopropyl-5-(tetrahydro-2H-pyran-4-yl)-1,6-dihydro-7H-pyrazolo[4,3-d]pyrimidin-7-one] | 5.01 µM | > 63.1 µM | 
CC(C)c1n[nH]c2c(=O)[nH]c(C3CCN(C)CC3)nc12 [compound 25, 3-Isopropyl-5-(1-methylpiperidin-4-yl)-1,6-dihydro-7H-pyrazolo[4,3-d]pyrimidin-7-one diformate] | > 63.1 µM | > 63.1 µM | 
CC(C)c1n[nH]c2c(=O)[nH]c([C@H]3CC[C@@H](O)CC3)nc12 [compound 26, cis-5-(4-Hydroxycyclohexyl)-3-isopropyl-1,6-dihydro-7H-pyrazolo[4,3-d]pyrimidin-7-one] |  | > 63.1 µM | 
CC(C)c1n[nH]c2c(=O)[nH]c([C@H]3CC[C@H](O)CC3)nc12 [compound 27, trans-5-(4-Hydroxycyclohexyl)-3-isopropyl-1,6-dihydro-7H-pyrazolo [4,3-d]pyrimidin-7-one] | 5.01 µM | > 63.1 µM | 
CC(C)c1n[nH]c2c(=O)[nH]c(C3CCNCC3)nc12 [compound 32, 3-Isopropyl-5-(piperidin-4-yl)-1,6-dihydro-7H-pyrazolo[4,3-d]pyrimidin-7-one] | > 63.1 µM |  | IC50 ([1]; human): > 63.1 µM

Continued, in another order:

IC50 (P. falciparum; [3]) | Compound | IC50 [1, 4] | other results
1.26 µM | CC(C)c1n[nH]c2c(=O)[nH]c(C(C)c3ccccc3)nc12 (racemic) [compound 13, (racemic)-3-Isopropyl-5-(1-phenylethyl)-1,6-dihydro-7H-pyrazolo[4,3-d]pyrimidin-7-one] | > 63.1 µM | 
7.94 µM | COC(c1ccccc1)c1nc2c(C(C)C)n[nH]c2c(=O)[nH]1 (racemic) [compound 15, (racemic)-3-Isopropyl-5-(methoxy(phenyl)methyl)-1,6-dihydro-7H-pyrazolo[4,3-d]pyrimidin-7-one] | > 63.1 µM | fold decreased antimalarial potency compared to 3 (P. falciparum): 5- to 25 fold
1.58 µM | CC(C)(C)c1n[nH]c2c(=O)[nH]c(Cc3ccccc3)nc12 [46a, 5-Benzyl-3-(tert-butyl)-1,6-dihydro-7H-pyrazolo[4,3-d]pyrimidin-7-one] | 39.8 µM | 
1.26 µM | CC(C)c1n[nH]c2c(=O)[nH]c(Cc3ccccc3)nc12 [compound 3, 5-Benzyl-3-isopropyl-1,6-dihydro-7H-pyrazolo[4,3-d]pyrimidin-7-one] | > 63.1 µM | 
> 63.1 µM | CC(C)c1n[nH]c2c(=O)[nH]c(-c3ccc(=O)n(C)c3)nc12 [compound 10, 3-Isopropyl-5-(1-methyl-6-oxo-1,6-dihydropyridin-3-yl)-1,6-dihydro-7H-pyrazolo[4,3-d]pyrimidin-7-one] | > 63.1 µM | 
> 63.1 µM | CC(C)c1n[nH]c2c(=O)[nH]c(-c3ccn(C)c(=O)c3)nc12 [compound 11, 3-Isopropyl-5-(1-methyl-2-oxo-1,2-dihydropyridin-4-yl)-1,6-dihydro-7H-pyrazolo[4,3-d]pyrimidin-7-one] | > 63.1 µM | 
1 µM | CC(C)c1n[nH]c2c(=O)[nH]c(C(C)(C)c3ccccc3)nc12 [compound 14, 3-Isopropyl-5-(2-phenylpropan-2-yl)-1,6-dihydro-7H-pyrazolo[4,3-d]pyrimidin-7-one] | > 63.1 µM | 
3.16 µM | CC(C)c1n[nH]c2c(=O)[nH]c(C3(c4ccccc4)CC3)nc12 [compound 16, 3-Isopropyl-5-(1-phenylcyclopropyl)-1,6-dihydro-7H-pyrazolo[4,3-d]pyrimidin-7-one] | > 63.1 µM | fold decreased antimalarial potency compared to 3 (P. falciparum): 5- to 25 fold
1.58 µM | CC(C)c1n[nH]c2c(=O)[nH]c(C3(c4ccccc4)CCC3)nc12 [compound 17, 3-Isopropyl-5-(1-phenylcyclobutyl)-1,6-dihydro-7H-pyrazolo[4,3-d]pyrimidin-7-one] | 25.1 µM | 
39.8 µM | Cc1nc2c(C(C)C)n[nH]c2c(=O)[nH]1 [compound 19, 3-Isopropyl-5-methyl-1,6-dihydro-7H-pyrazolo[4,3-d]pyrimidin-7-one] | > 63.1 µM | 
3.98 µM | CC(C)c1nc2c(C(C)C)n[nH]c2c(=O)[nH]1 [compound 20, 3,5-Diisopropyl-1,6-dihydro-7H-pyrazolo[4,3-d]pyrimidin-7-one] | > 63.1 µM | 
